Test results reported in patent US8178506B2, “Oligomeric compounds and compositions for use in modulation of small non-coding RNAs” (Regulus Therapeutics Inc., priority 2003, dated 2012).

Key:
[1] = system: differentiated adipocytes; experiment: Hallmark genes and triglycerides in differentiated adipocytes; assay type: cell-based, human; details: 250 nM, transfected day nine, measured 12th day post differentiation
Excerpt: The effect of the oligomeric compounds of the present invention targeting miRNAs on the expression of markers of cellular differentiation was examined in differentiated adipocytes.
As previously described, the HSL, aP2, Glut4, and PPARγ genes play important rolls in the uptake of glucose and the metabolism and utilization of fats. Also as previously described, an increase in triglyceride content is another well-established marker for adipocyte differentiation. Human white preadipocytes (Zen-Bio Inc., Research Triangle Park, N.C.) were grown in preadipocyte media (ZenBio Inc.). After the cells reached confluence (approximately three days), they were exposed to differentiation media (Zen-Bio, Inc.) containing a PPAR-γ agonist, IBMX, dexamethasone, and insulin for three days. Cells were then fed Adipocyte Medium (Zen-Bio, Inc.), which was replaced at 2 to 3 day intervals. One day before transfection, 96-well plates were seeded with 3000 cells/well. Cells were then transfected on day nine post-differentiation, according to standard published procedures with 250 nM oligonucleotide in LIPOFECTIN™ (Invitrogen Corporation, Carlsbad, Calif.) (Monia et al., J. Biol. Chem. 1993 268(19):14514-22). Oligomeric compounds were tested in triplicate on each 96-well plate, and the effect of TNF-α, known to inhibit adipocyte differentiation, was also measured in triplicate. Oligomeric compound treatments and transfectant-only negative controls may be measured up to six times per plate. On day twelve post-differentiation, cells were washed and lysed at room temperature, and the expression of the four hallmark genes, HSL, aP2, Glut4, and PPARγ, as well as triglyceride (TG) accumulation were measured in adipocytes transfected with the uniform 2′-MOE phosphorothioate (PS) previously described in Example 13 as well as the chimeric gapmer oligomeric compounds targeting the mir-143 miRNA and the mir-143 pri-miRNA described in Example 16. On day twelve post-differentiation, cells were lysed in a guanadinium-containing buffer and total RNA was harvested. The amount of total RNA in each sample was determined using a Ribogreen Assay (Molecular Probes, Eugene, Oreg.). Real-time PCR was performed on the total RNA using primer/probe sets for the adipocyte differentiation hallmark genes Glut4, HSL, aP2, and PPARγ. Triglyceride levels as well as mRNA levels for each of the four adipocyte differentiation hallmark genes are expressed relative to control levels (control=treatment with ISIS-29848 (SEQ ID NO: 737)).

DIO mice = experiment: Diet-induced obesity (DIO) mice; assay type: in vivo; details: 25 mg/kg s.c. twice weekly

CTAGTGGTCCTAAACATTTCAC (chemistry not given here) [ISIS 327878, uniform 2′-MOE PS; targets mir-203]
expression of hallmark marker genes in differentiated adipocytes [1]: decreased expression of the aP2, HSL, Glut4 and PPARγ marker genes | liver toxicity (plasma transaminase levels, weekly) (DIO mice): did not appear to cause liver toxicity
